How the values were obtained:
[1] = tested on: HT1376 cells; assay: In vitro binding of [^68Ga]AJ647 to HT1376 cells; assay type: cell-based; settings: 1 × 10^6 cells, ~1 μCi, 30 min, 4°C, means ± SD, n = 4
Description: (§1) In vitro binding of [^68Ga]AJ647 to T24, SCaBER, RT112, UC9, UC14, and HT1376 cells was determined by incubating 1 × 10^6 cells with ~1 μCi of [^68Ga]AJ647 for 30 min at 4°C. After incubation, cells were washed three times with ice-cold PBS containing 0.1% Tween 20 and counted on an automated gamma counter. All cell radioactivity uptake studies were performed in quadruplicate for each cell line and repeated three times.

[2] = tested on: RT112 cells; assay: In vitro binding of [^68Ga]AJ647 to RT112 cells; assay type: cell-based; settings: 1 × 10^6 cells, ~1 μCi, 30 min, 4°C, means ± SD, n = 4
Description: as §1

[3] = physchem; assay type: physicochemical; settings: pH 7.4
Description: The logD (pH 7.4) value was determined according to a literature procedure ([32]). Briefly, a 10-μl solution of [^68Ga]AJ647 (around 10 μCi) was added to a solution of 1-octanol (200 μl) mixed with phosphate-buffered saline (PBS) (190 μl) in a 1.5-ml centrifuge tube. After the mixture was vigorously shaken and vortexed, it was centrifuged at 3000 rpm for 5 min. Aliquots (10 μl) were removed from both phases, and the radioactivity was measured on an automated gamma counter (1282 Compugamma CS, Pharmacia/LKB Nuclear Inc., Gaithersburg, MD). The logD was calculated as the average log ratio value of the radioactivity in the 1-octanol fraction and the PBS fraction from the three samples.

[4] = tested on: HT1376 tumor xenograft; assay: TE and EV therapy response study, HT1376 xenograft; assay type: in vivo, NSG mice; settings: for mice showing a drop in [^68Ga]AJ647 uptake: day 6
Description: Mice with tumor volumes of ~100 to 150 mm^3 were injected with ~200 μCi [7.4 megabecquerels (MBq)] of [^68Ga]AJ647 in […] of 5% ethanol in saline intravenously and anesthetized under 2.5% isoflurane. PET-computed tomography (CT) images were acquired at 60 min after radiotracer injection at 5 min per bed in an ARGUS small-animal PET/CT scanner (Sedecal, Madrid, Spain) as described previously (n = 3, unless otherwise noted). PET-MR images were acquired on a simultaneous 7T Bruker PET-MR scanner. Dynamic imaging was conducted to evaluate the PK of [^68Ga]AJ647. [^68Ga]AJ647 was injected (with the help of a catheter) after mice were anesthetized under 2.5% isoflurane on the equipment bed. All PET data were reconstructed using the two-dimensional (2D) ordered subset expectation maximization algorithm and corrected for radioactive decay and dead times. The SUV values were calculated by finding %IA on the basis of a calibration factor obtained from a known radioactive quantity and then normalizing by mice weight. Amide software was used to derive SUV values by drawing the region of interest to closely fit tumors. In particular, MR images were used to identify tumor boundaries manually; these boundaries were transferred to co-registered PET images to derive SUVs. This process was repeated for each mouse individually in a blinded fashion. For the change in accessible Nectin-4 following EV treatment, ΔSUV was calculated by subtracting baseline (pre-treatment) uptake from posttherapy uptake of [^68Ga]AJ647. TE was quantified by normalizing this change by initial SUV in the same subject controls. Image fusion, visualization, and 3D rendering were accomplished using Amira 2020.3.1 (FEI, Hillsboro, OR).
Male NSG (n = 35) mice were inoculated with 4 million HT1376 cells at day 0. On day 23 (average tumor volume, 170 ± 22 mm^3), mice were randomized to receive either saline or a single dose of EV (6 or 15 mg/kg) intravenously (n = 10 for each group). Mice (n = 10) from each dose group were imaged on days 22 (pre-EV) and 29 (6 days post-EV). Saline mice (n = 5) were imaged on day 25 to serve as temporal and treatment control. Mouse body weight and tumor measurements were recorded until saline group tumors reached 1500 mm^3 in average size. Responders and nonresponders were identified using mRECIST for mice published elsewhere ([34]). Briefly, the percentage change in volume relative to the baseline: % tumor volume change (ΔVolt) = 100% × [(Vt − Vinitial)/Vinitial]. BestResponse was the lowest ΔVolt for t ≥ 10 days. For each time t, the average ΔVolt from t = 0 to t was calculated, with the BestAvgResponse defined as the lowest average ΔVolt for t ≥ 10 days. mRECIST, adapted from RECIST21, assigned response labels when both the BestResponse and BestAvgResponse conditions are met at the same time. A modified complete response is defined when BestResponse is less than −95% and BestAvgResponse is less than −40%. A modified partial response is assigned when BestResponse is less than −50% and BestAvgResponse is less than −20%. Modified stable disease is defined when BestResponse is less than 35% and BestAvgResponse is less than 30%. Modified progressive disease is assigned when none of these criteria are satisfied.
We defined modified progressive disease as nonresponders (0 response) and stable disease or better as responders (1 response). […]

[5] = tested on: HT1376 cells; assay: [^68Ga]AJ647 binding after EV preincubation, HT1376 cells; assay type: cell-based; settings: EV 60 nM preincubated 30 min, P < 0.0001
Description: An FITC analog of EV was made using the manufacturer’s recommended protocol (Thermo Fisher Scientific, no. 46409). Briefly, 1 mg of EV was incubated with FITC-NHS ester at a 5:1 molar ratio overnight at 4°C at 0.1 M borate buffer (pH 8.0). Excess unbound FITC-NHS ester was washed off by performing buffer exchange with 1× PBS using three rounds of ultracentrifugation at 4000g for 10 min (3-kDa molecular weight cutoff filter, Amicon, no. UFC900308). The effect of nonradioactive AJ647 on EV binding to Nectin-4 was assessed by incubating HT1376 cells at varying concentrations (5.4 μM to 0.01 nM using a serial dilution) of AJ647 for 30 min at 4°C. Unbound AJ647 was washed off using 3 ml of cold PBS. Cells were incubated with EV-FITC for 30 min at 4°C. Excess EV-FITC was washed off using 3 ml of cold PBS. The mean fluorescence intensity was measured using a flow cytometer, and data are reported as the percentage of 0 nM AJ647. For the effect of EV on [^68Ga]AJ647 binding, EV was used at concentrations of 90 to 0.04 nM using serial dilutions for 30 min at 4°C. Unbound EV was washed off using cold PBS. Then, cells were incubated with 1 μCi of [^68Ga]AJ647 for an additional 30 min. Excess [^68Ga]AJ647 was washed off three times with cold PBS. Samples were read in an automated gamma counter, and data are reported as the percentage of 1-μCi standard counts.

Molecule | [^68Ga]AJ647 uptake [1] [%IA] | [^68Ga]AJ647 uptake [2] [%IA] | logD [3] | mice showing a drop in [^68Ga]AJ647 uptake ([4]; EV 6 mg/kg) | mice showing a drop in [^68Ga]AJ647 uptake ([4]; EV 15 mg/kg) | final tumor volume ([4]; EV-treated mice with higher TE, in mm³ (unit assumed)) | final tumor volume ([4]; EV-treated mice with less than 30% TE) | tumor growth ([4]; single dose EV 6 or 15 mg/kg, n = 10 per group, more pronounced at 15 mg/kg) | effect on [^68Ga]AJ647 binding [5]
CSCC[C@@H]1NC(=O)[C@@H]2CSCCC(=O)N3CN(CN(C3)C(=O)CCSC[C@H](NC(=O)CCOCCOCCOCCOCCOCCOCCOCCOCCOCCOCCOCCOCCNC(=O)CN3CCN(CC(=O)O)CCN(CC(=O)O)CC3)C(=O)N3CCC[C@H]3C(=O)N[C@@H](Cc3cccc4ccccc34)C(=O)N[C@@H](CC(=O)O)C(=O)N2)C(=O)CCSC[C@@H](C(N)=O)NC(=O)[C@H](Cc2c[nH]c3ccccc23)NC(=O)[C@@H]2C[C@@H](O)CN2C(=O)[C@@H]2CCCN2C(=O)[C@H]([C@@H](C)O)NC(=O)[C@H](CO)NC(=O)[C@H](Cc2c[nH]c3ccccc23)NC(=O)[C@@H](CC(=O)O)NC(=O)[C@H](CCCCNC(=N)N)NC1=O [[^68Ga]AJ647, metal not drawn] | 6.5 ± 0.52 | 1.9 ± 0.18 | -2.06 ± 0.17 |  |  |  |  |  | 
enfortumab vedotin [EV] |  |  |  | 5 of 10 | 9 of 10 | 324.9 ± 194.6 | 759.4 ± 455 | Tumor growth inhibition was observed in both groups | significantly reduced [^68Ga]AJ647 binding

From PMC12778052 (Science Advances, 2026)
